Test system: PPARγ LBD
Test: Two-dimensional titration of SR11237 and unlabeled mutant RXRα LBD: CBP-1 recruitment by sGFP-PPARγ LBD (HTRF);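 on HTRF mean; N=2: mutant RXRα LBD carries mutations that block its own coactivator recruitment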
Assay type: biochemical, human

CC1(C)CCC(C)(C)c2cc(C3(c4ccc(C(=O)O)cc4)OCCO3)ccc21 [SR11237]
HTRF mean; N=2 (SR11237 163.84 nM, RXRα mutant LBD 3.90625 nM): 7848
HTRF mean; N=2 (SR11237 163.84 nM, RXRα mutant LBD 7.8125 nM): 7981
HTRF mean; N=2 (SR11237 163.84 nM, RXRα mutant LBD 31.25 nM): 8037
HTRF mean; N=2 (SR11237 163.84 nM, RXRα mutant LBD 62.5 nM): 8496
HTRF mean; N=2 (SR11237 163.84 nM, RXRα mutant LBD 250 nM): 9360
HTRF mean; N=2 (SR11237 163.84 nM, RXRα mutant LBD 500 nM): 9174
HTRF mean; N=2 (SR11237 163.84 nM, RXRα mutant LBD 1000 nM): 9009
HTRF mean; N=2 (SR11237 1024 nM, RXRα mutant LBD 1.95312 nM): 7904
HTRF mean; N=2 (SR11237 1024 nM, RXRα mutant LBD 3.90625 nM): 7933
HTRF mean; N=2 (SR11237 1024 nM, RXRα mutant LBD 7.8125 nM): 8096
HTRF mean; N=2 (SR11237 1024 nM, RXRα mutant LBD 31.25 nM): 8413
HTRF mean; N=2 (SR11237 1024 nM, RXRα mutant LBD 62.5 nM): 8597
HTRF mean; N=2 (SR11237 1024 nM, RXRα mutant LBD 250 nM): 9475
HTRF mean; N=2 (SR11237 1024 nM, RXRα mutant LBD 500 nM): 9672
HTRF mean; N=2 (SR11237 1024 nM, RXRα mutant LBD 1000 nM): 9907
HTRF mean; N=2 (SR11237 16000 nM, RXRα mutant LBD 0.976562 nM): 8373
HTRF mean; N=2 (SR11237 16000 nM, RXRα mutant LBD 1.95312 nM): 8383
HTRF mean; N=2 (SR11237 16000 nM, RXRα mutant LBD 3.90625 nM): 8482
HTRF mean; N=2 (SR11237 16000 nM, RXRα mutant LBD 7.8125 nM): 8492
HTRF mean; N=2 (SR11237 16000 nM, RXRα mutant LBD 31.25 nM): 8658
HTRF mean; N=2 (SR11237 16000 nM, RXRα mutant LBD 62.5 nM): 9133
HTRF mean; N=2 (SR11237 16000 nM, RXRα mutant LBD 250 nM): 9981
HTRF mean; N=2 (SR11237 16000 nM, RXRα mutant LBD 500 nM): 10090
HTRF mean; N=2 (SR11237 16000 nM, RXRα mutant LBD 1000 nM): 10256
HTRF mean; N=2 (SR11237 100000 nM, RXRα mutant LBD 0.976562 nM): 8525
HTRF mean; N=2 (SR11237 100000 nM, RXRα mutant LBD 1.95312 nM): 8620
HTRF mean; N=2 (SR11237 100000 nM, RXRα mutant LBD 3.90625 nM): 8706
HTRF mean; N=2 (SR11237 100000 nM, RXRα mutant LBD 7.8125 nM): 8679
HTRF mean; N=2 (SR11237 100000 nM, RXRα mutant LBD 31.25 nM): 8875
HTRF mean; N=2 (SR11237 100000 nM, RXRα mutant LBD 62.5 nM): 9423
HTRF mean; N=2 (SR11237 100000 nM, RXRα mutant LBD 250 nM): 9880
HTRF mean; N=2 (SR11237 100000 nM, RXRα mutant LBD 500 nM): 10045
HTRF mean; N=2 (SR11237 100000 nM, RXRα mutant LBD 1000 nM): 9921
HTRF mean; N=2 (SR11237 […], RXRα mutant LBD 0.976562 nM): 8114
HTRF mean; N=2 (SR11237 […], RXRα mutant LBD 1.95312 nM): 8140
HTRF mean; N=2 (SR11237 […], RXRα mutant LBD 3.90625 nM): 8154
HTRF mean; N=2 (SR11237 […], RXRα mutant LBD 7.8125 nM): 8229
HTRF mean; N=2 (SR11237 […], RXRα mutant LBD 31.25 nM): 8421
HTRF mean; N=2 (SR11237 […], RXRα mutant LBD 62.5 nM): 8922
HTRF mean; N=2 (SR11237 […], RXRα mutant LBD 250 nM): 9616
HTRF mean; N=2 (SR11237 […], RXRα mutant LBD 500 nM): 9926
HTRF mean; N=2 (SR11237 […], RXRα mutant LBD 1000 nM): 9869
CBP-1 recruitment relative to that seen with rosiglitazone (other factor (RXRα or SR11237) present at ≤1 nM): ≤ 5%
